Target: T1, PTP1B (Homo sapiens, UniProt P18031)
T1 construct: gene PTPN1
T1 sequence (P18031 1-435): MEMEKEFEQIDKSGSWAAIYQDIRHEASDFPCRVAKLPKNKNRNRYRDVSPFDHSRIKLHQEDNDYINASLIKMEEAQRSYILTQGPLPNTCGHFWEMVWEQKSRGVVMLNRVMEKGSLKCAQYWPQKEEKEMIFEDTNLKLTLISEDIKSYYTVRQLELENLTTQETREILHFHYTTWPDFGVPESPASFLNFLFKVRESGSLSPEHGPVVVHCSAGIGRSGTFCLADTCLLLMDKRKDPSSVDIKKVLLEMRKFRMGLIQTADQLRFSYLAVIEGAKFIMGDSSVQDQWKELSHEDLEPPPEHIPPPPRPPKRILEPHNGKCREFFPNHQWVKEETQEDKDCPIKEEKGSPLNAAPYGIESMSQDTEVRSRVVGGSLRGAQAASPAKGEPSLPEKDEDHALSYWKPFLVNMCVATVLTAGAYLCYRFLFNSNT
Experiment: recombinant PTP1B pNPP hydrolysis assay, absorbance at […] nm
Type: biochemical

IC50: 104 ± 10.1 µM
Structure (SMILES): Oc1cc(O)c2c(c1)O[C@H](c1cc(O)c(O)c(O)c1)[C@H](O)C2 [EGC, epigallocatechin]

From article PMC7761018, “Green Tea Catechins Induce Inhibition of PTP1B Phosphatase in Breast Cancer Cells with Potent Anti-Cancer Properties: In Vitro Assay, Molecular Docking, and Dynamics Studies” (Antioxidants, 2020)
